System: CHO cells expressing the hERG ion channel
Experiment: Thallium influx assay of cells expressing the hERG potassium ion channel, loaded with thallium ion indicator
Format: cell-based
Conditions: for Fold Increase Over Baseline (fluorogenic response): loaded 60 minutes, potassium 10 mM; for Fold Increase Over Baseline (fluorogenic response) / detection of thallium ions (fluorescence dF/F over time): final thallium 2 mM; for change of fold increase (fluorogenic response) with dye loading concentration: dye concentration increased from 1 μM to 2 μM; for detection of thallium ions (fluorescence dF/F over time) / response (signal amplitude) post stimulus, Compound 8 relative to Compound 9: FIG. 10, average of 5-10 wells; for response (signal amplitude) post stimulus, Compound 8 relative to Compound 9: fold increase in signal post stimulus over baseline
Protocol: Component A: Thallium ion indicator dye in amount that will prepare 1-10 uM solution in normal Chloride Assay Buffer. Component B: Physiological (normal) Chloride Assay Buffer: NaCl 145 mM; KCl 2.5 mM; CaCl2 1.8 mM; MgCl2 1.0 mM; HEPES 20 mM; pH set to 7.4 with NaOH. Component C: Chloride Free Stimulus Buffer: 140 mM Na Gluconate; 2.5 mM K Gluconate; 1.8 […] Ca Gluconate; 1.0 mM Mg Gluconate; 10 mM HEPES; 25 mM K2SO4; 5.0 mM Tl2SO4.
Cells including an ion channel are cultured to about 75% confluence and in log-phase growth. The cells are then harvested using well-known cell culture techniques and buffers and replated into a 96 well plate at a density of, for example, 5,000-40,000 cells per well (e.g., 20,000 cells per well). The cells comprise the ion channel endogenously, or the cells can be engineered to comprise ion channels of a particular type. Methods of transfecting and/or transforming cells to express a particular type of protein are well known in the art and need not be repeated herein.
To prepare the dye loading buffer, Component A is prepared in assay buffer (Component B) at concentrations from 1-20 micromolar. Optional addition of 1-100 μg/mL Pluronic surfactant can aid-in dispersion and loading of dye and/or 1-10 mM probenecid to aid in retention of the dye. Next the cell culture media is aspirated from the cells in the 96 well plate and replaced with dye loading buffer and incubated at room temperature for 60-120 minutes. While the cells are incubating in loading buffer, stimulus buffer (Component C) is prepared for addition to the microplate. The loading buffer then is removed from the cells, and replaced with […] that contains no dye, to reduce background fluorescence from unincorporated dye in the solution. Next, the fluorescence from the cells is read on a spectrophotometer. For samples implementing a thallium indicator that emits in the green spectral region, the sample is excited with light in the range of 470-500 nm, and emission is read at 520 to 540 nm, with a filter cutoff of 515 nm. For samples implementing a thallium indicator that emits in the red spectral region, the sample is excited with light in the range of 545-565 nm and read at 580-600 nm, with a filter cutoff of 570 nm. A pre-stimulus “baseline” signal is measured at regular intervals for 10-30 seconds in advance of adding Stimulus Buffer (Component C). Component C is added to the cells in a 1:5 dilution at the indicated time, and the increase in fluorescence from the cells is measured over time.
Cells expressing the hERG potassium ion channel were assayed using the method described in Example 10 to compare the efficacy of two different isomeric thallium ion indicators. CHO cells expressing the hERG ion channel were assayed using methods described herein. Cells were loaded in assay buffer containing the indicated concentration of dye in Table 1 (i.e., 1 or 10 μM) washed with dye-free assay buffer (Component B) and the stimulus buffer (Component C) was delivered to the cells in a volume of 25 μL, added to 100 μL for a 5× dilution (Component C, containing 25 mM T K2SO4 and […]). In this particular example, the final concentration of potassium on the cells was 10 mM and the final concentration of thallium on the cells was 2 mM. […] Fluorescence data from the samples was plotted over time as fold increase in signal (post stimulus) over baseline (pre stimulus). Signal amplitude was compared from an average of 5-10 individual wells loaded with the dye indicated.
Cells expressing the hERG potassium ion channel were assayed using the thallium influx method described in Example 11 to compare the efficacy of various thallium ion indicators disclosed herein. Thallium indicators were prepared in loading buffer at the concentrations listed in Table 1 and loaded into cells for 60 minutes. […]

[1] = dye loading concentration 1 μM, excitation 470-500 nm, emission 520-540 nm
[2] = dye loading concentration 2 μM, excitation 470-500 nm, emission 520-540 nm

## COc1cc(-c2c3ccc(=[N+](C)C)cc-3oc3cc(N(C)C)ccc23)ccc1N(CC(=O)OCOC(C)=O)CC(=O)OCOC(C)=O.[Br-] [Compound 1, N-(9-(4-(bis(2-(acetoxymethoxy)-2-oxoethyl)amino)-3-methoxyphenyl)-6-(dimethylamino)-3H-xanthen-3-ylidene)-N-methylmethanaminium bromide]
Dye loading concentration 10 μM, excitation 545-565 nm, emission 580-600 nm
  Fold Increase Over Baseline (fluorogenic response): 2.7 fold

## COc1ccc(NC(=O)c2ccc3c(c2)C(=O)OC32c3ccc(OC(C)=O)cc3Oc3cc(OC(C)=O)ccc32)cc1N(CC(=O)OCOC(C)=O)CC(=O)OCOC(C)=O [Compound 2, bis(acetoxymethyl) 2,2′-((5-(3′,6′-diacetoxy-3-oxo-3H-spiro[isobenzofuran-1,9′-xanthene]-5-carboxamido)-2-methoxyphenyl)azanediyl)diacetate]
  change of fold increase (fluorogenic response) with dye loading concentration: little to no change
[1]
  Fold Increase Over Baseline (fluorogenic response): 1.2 fold
[2]
  Fold Increase Over Baseline (fluorogenic response): 1.3 fold

## COc1ccc(NC(=O)c2ccc3c(c2)C2(OC3=O)c3ccc(OC(C)=O)cc3Oc3cc(OC(C)=O)ccc32)cc1N(CC(=O)OCOC(C)=O)CC(=O)OCOC(C)=O [Compound 3, bis(acetoxymethyl) 2,2′-((5-(3′,6′-diacetoxy-3-oxo-3H-spiro[isobenzofuran-1,9′-xanthene]-6-carboxamido)-2-methoxyphenyl)azanediyl)diacetate]
[1]
  Fold Increase Over Baseline (fluorogenic response): 1.1 fold
[2]
  Fold Increase Over Baseline (fluorogenic response): 0.8 fold

## COc1ccc(NC(=O)c2ccc3c(c2)C2(OC3=O)c3cc(F)c(OC(C)=O)cc3Oc3cc(OC(C)=O)c(F)cc32)cc1N(CC(=O)OCOC(C)=O)CC(=O)OCOC(C)=O [Compound 4, bis(acetoxymethyl) 2,2′-((5-(3′,6′-diacetoxy-2′,7′-difluoro-3-oxo-3H-spiro[isobenzofuran-1,9′-xanthene]-6-carboxamido)-2-methoxyphenyl)azanediyl)diacetate]
[1]
  Fold Increase Over Baseline (fluorogenic response): 1.5 fold
[2]
  Fold Increase Over Baseline (fluorogenic response): 1.4 fold

## COc1cc(NC(=O)c2ccc3c(c2)C(=O)OC32c3ccc(OC(C)=O)cc3Oc3cc(OC(C)=O)ccc32)ccc1N(CC(=O)OCOC(C)=O)CC(=O)OCOC(C)=O [Compound 5, bis(acetoxymethyl) 2,2′-((4-(3′,6′-diacetoxy-3-oxo-3H-spiro[isobenzafuran-1,9′-xanthene]-5-carboxamido)-2-methoxyphenyl)azanediyl)diacetate]
  change of fold increase (fluorogenic response) with dye loading concentration: decreased significantly
[1]
  Fold Increase Over Baseline (fluorogenic response): 3.7 fold
[2]
  Fold Increase Over Baseline (fluorogenic response): 3.1 fold

## COc1cc(NC(=O)c2ccc3c(c2)C2(OC3=O)c3ccc(OC(C)=O)cc3Oc3cc(OC(C)=O)ccc32)ccc1N(CC(=O)OCOC(C)=O)CC(=O)OCOC(C)=O [Compound 6, bis(acetoxymethyl) 2,2′-((4-(3′,6′-diacetoxy-3-oxo-3H-spiro[isobenzofuran-1,9′-xathene]-6-carboxamido)-2-methoxyphenyl)azanediyl)diacetate]
[1]
  Fold Increase Over Baseline (fluorogenic response): 3.7 fold
[2]
  Fold Increase Over Baseline (fluorogenic response): 2.8 fold

## COc1cc(NC(=O)c2ccc3c(c2)C2(OC3=O)c3cc(F)c(OC(C)=O)cc3Oc3cc(OC(C)=O)c(F)cc32)ccc1N(CC(=O)OCOC(C)=O)CC(=O)OCOC(C)=O [Compound 7, bis(acetoxymethyl) 2,2′-((4-(3′,6′-diacetoxy-2′,7′-difluroro-3-oxo-3H-spiro[isobenzofuran-1,9′-xanthene]-6-carboxamido)-2-methoxyphenyl)azanediyl)diacetate]
[1]
  Fold Increase Over Baseline (fluorogenic response): 2.3 fold
[2]
  Fold Increase Over Baseline (fluorogenic response): 1.5 fold

## COc1cc(NC(=O)c2ccc3c(c2)C(=O)OC32c3cc(F)c(OC(C)=O)cc3Oc3cc(OC(C)=O)c(F)cc32)ccc1N(CC(=O)OCOC(C)=O)CC(=O)OCOC(C)=O [Compound 8, bis(acetoxymethyl) 2,2′-((4-(3′,6′-diacetoxy-2′,7′-difluoro-3-oxo-3H-spiro[isobenzofuran-1,9′-xanthene]-5-carboxamido)-2-methoxyphenyl)azanediyl)diacetate]
  detection of thallium ions (fluorescence dF/F over time): detected the presence of thallium ions
  response (signal amplitude) post stimulus, Compound 8 relative to Compound 9: far more sensitive to thallium ions than Compound 9
  change of fold increase (fluorogenic response) with dye loading concentration: not affected
Listed as compound 8
  response (signal amplitude) post stimulus, Compound 8 relative to Compound 9: larger response (signal amplitude)
[1]
  Fold Increase Over Baseline (fluorogenic response): 3.4 fold
[2]
  Fold Increase Over Baseline (fluorogenic response): 3.4 fold

## COc1ccc(NC(=O)c2ccc3c(c2)C(=O)OC32c3cc(F)c(OC(C)=O)cc3Oc3cc(OC(C)=O)c(F)cc32)cc1N(CC(=O)OCOC(C)=O)CC(=O)OCOC(C)=O [Compound 9, bis(acetoxymethyl) 2,2′-((5-(3′,6′-diacetoxy-2′,7′-difluoro-3-oxo-3H-spiro[isobenzofuran-1,9′-xanthene]-5-carboxamido)-2-methoxyphenyl)azanediyl)diacetate]
  detection of thallium ions (fluorescence dF/F over time): detected the presence of thallium ions
  change of fold increase (fluorogenic response) with dye loading concentration: not affected
[1]
  Fold Increase Over Baseline (fluorogenic response): 2.0 fold
[2]
  Fold Increase Over Baseline (fluorogenic response): 2.0 fold

Source: patent US20190187155A1, “COMPOSITION AND METHODS FOR MEASURING ION CHANNEL ACTIVITY IN A CELL” (LIFE TECHNOLOGIES CORPORATION, priority 2016, published 2019)
